Experimental data: patent US20120225093A1, “Abrogating HIV-1 Infection via Drug-Induced Reactivation of Apoptosis” (UNIVERSITY OF MEDICINE AND DENTISTRY OF NEW JERSEY, priority 2010, published 2012)

Tests used:
[1] = molecular target: T1, deoxyhypusine hydroxylase (Homo sapiens, UniProt Q9BU89); assay: Deoxyhypusine hydroxylase activity in H9-HIV cells (peptide-bound hypusine / deoxyhypusine); format: cell-based
T1 construct: endogenous in cells; host or cells: H9-HIV cells (H9 infected with HIV-1 HTLV-IIIB)
T1 sequence (Q9BU89 1-302): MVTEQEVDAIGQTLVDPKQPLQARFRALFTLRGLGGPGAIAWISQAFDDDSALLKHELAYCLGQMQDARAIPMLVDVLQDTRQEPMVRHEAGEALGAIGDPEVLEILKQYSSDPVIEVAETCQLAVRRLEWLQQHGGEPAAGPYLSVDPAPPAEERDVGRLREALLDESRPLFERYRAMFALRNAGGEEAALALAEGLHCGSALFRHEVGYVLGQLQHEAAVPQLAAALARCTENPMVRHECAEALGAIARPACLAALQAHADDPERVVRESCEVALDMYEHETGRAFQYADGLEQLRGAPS
Description: FIGS. 11A-D are a set of diagrams showing drug-activated apoptosis and iron chelation. A. Covalent structures of the medicinal chelators DFOX and DEF, and of the antifungal agent CPX and its chelation homolog Agent P2. DFOX, CPX, and Agent P2 interact with iron via a hydroxamate moiety, similar to the chelating domain of DEF. Arrows indicate the uniform bidentate mode of metal binding. DFOX contains three of these moieties and is a hexadentate chelator. B. Effect of drugs and Agent P2 on the expression of iron-dependant (IRE; hatched bars) and retrovirally-encoded (HIV; filled bars) gene expression in transfected 293T cells. Results are expressed relative to untreated controls. C. […] Triangles, peptide-bound hypusine; squares, peptide-bound deoxyhypusine. D. Induction of apoptosis by CPX and by DFOX. H9-HIV cells were treated for 24 hr and then assayed by flow cytometry using TUNEL. Results are expressed as percentage of cells that are TUNEL-positive (±SEM).

HIV-1 = assay: Persistent PBMC infection model, long-term culture with drug withdrawal; format: cell-based; conditions: for rebound of HIV-1 infection after drug withdrawal: off-drug inspection period extending to 12 weeks
Description: Uninfected (5×10^6 cells) and infected PBMCs (0.5×10^6 cells) were co-incubated in a 25 ml culture flask at a final concentration of 0.22×10^6 cells/ml. Cultures were allowed to establish productive infection, defined by medium p24 at or above 250 pg/ml, and CPX was added. Cultures were replenished with Medium B and freshly isolated uninfected PBMCs on alternate days. For replacement of Medium B, half of the supernatant was gently exchanged without disturbing the cells, and the drug concentration was adjusted appropriately. For replacement with freshly isolated, stimulated and uninfected PBMCs, half of the cells and supernatant were removed and replaced with 2.5×10^6 cells in the proper volume of Medium B, with adjustment of the drug concentration. Cell-free supernatants were saved for p24 and viral RNA measurements.
p24 core antigen in the supernatant was quantified by ELISA (Retrotek HIV-1 p24™; ZeptoMetrix Corp.; Buffalo, N.Y.). HIV-1 RNA copy number in the supernatant was determined with a PCR-based and FDA-approved assay (Amplicor HIV-1 Monitor™; Roche Diagnostics Corp.; Indianapolis, Ind.). IFN-γ and IL-10 in the supernatant were determined by cytometric bead array (Human Th1/Th2 Cytokine Kit II™; BD Biosciences Pharmingen, San Jose, Calif.).
Next, assays were carried out to examine whether CPX can control established HIV-1 infection in primary cells. Long-term PBMC cultures were employed as a model for on-going, self-sustaining HIV-1 production. As before, infection was initiated by exposure to patient isolate-infected cells. To emulate the bulk flow of susceptible cells from a generative into an infective compartment that occurs in vivo, a replenishment protocol was followed. Freshly isolated uninfected primary cells were infused into the infected cultures at regular intervals during multi-month monitoring of viral parameters. HIV-1 RNA reached the range of 10^6 copies/ml within a week of patient isolate inoculation, and this robust infection was sustained for >3 months (FIG. 14; open squares).

[2] = test system: CMV immediate early promoter; assay: CMV promoter-driven luciferase (pCMV-Ren, pCMV-FF) in 293T cells; format: cell-based, cytomegalovirus; conditions: for CMV-driven Renilla luciferase expression: pCMV-Ren
Description: Plasmids were introduced into 2×10^5 293T cells by transfection using Lipofectamine 2000 (Invitrogen) according to the manufacturer's instructions. Compounds (such as CPX or DEF) were added simultaneously. Cells were harvested at 12 hr post-transfection, washed with PBS, lysed in 0.15 ml of 1× passive lysis buffer (Promega), and assayed for luciferase activity using the Promega dual luciferase reporter system according to the manufacturer's instructions. Jurkat cells (1×10^6 cells) were transfected using FuGENE 6 (Roche) according to the manufacturer's instructions and assayed in a similar fashion after pelleting.
293T cells were selected as a model system to explore the relationship between the drugs, eIF5A and HIV gene expression. These cells efficiently transcribe HIV-1 genes from molecular clones as well as subviral constructs, allowing for early detection of changes in HIV gene expression. To establish the system, assays were carried out to examine the effect of CPX and DEF on the expression of firefly luciferase (FF) from the HIV-1 molecular clone, pNL4-3-LucE-, engineered to carry the FF gene in place of the viral nef gene. The molecular clone was transfected into 293T cells together with the pCMV-Ren vector that expresses Renilla luciferase (Ren) from the cytomegalovirus (CMV) immediate early promoter as a control for transfection efficiency and non-specific effects of the compounds. Dual luciferase assays were conducted at 12 hr post-transfection and results are expressed as relative luciferase activity (FF:Ren). […] Assays therefore were carried out to characterize the action of CPX and DEF on eIF5A and HIV gene expression in 293T cells during the first 12 to 24 hr of drug treatment.

H9-HIV cells = assay: Mitochondrial membrane potential (JC-1) in H9-HIV cells; format: cell-based; conditions: for Δψ collapse at low drug concentrations: 5 and 15 μM CPX, 50 and 100 μM DEF; for collapse of Δψ, infected versus uninfected cells: 24 hr, 30 μM CPX, 200 μM DEF
Description: The potential across the mitochondrial membrane of live cells was determined flow-cytometrically with the lipophilic cationic fluorochrome JC-1 (5,5′,6,6′-tetrachloro-1,1′,3,3′-tetraethylbenzimidazolcarbocyanine iodide) immediately after sample harvest (BD™ Mitoscreen Kit, BD Biosciences; San Diego, Calif.). DNA fragmentation was quantified flow-cytometrically, using a TUNEL (terminal deoxynucleotide transferase dUTP nick end-labeling) assay (APO-BRDU™; Phoenix Flow Systems; San Diego, Calif.) and a dual-color assay for annexin V binding and 7-AAD exclusion (Annexin V-PE 7-AAD Apoptosis Detection Kit I™; BD Biosciences Pharmingen, San Jose, Calif.). The apoptotic volume decrease of cells was assessed by the reduction of their diameter (VI-CELL™; Beckman Coulter; Fullerton, Calif.).
Next the effect of the drugs on apoptosis in H9 and H9-HIV cells was examined. Both CPX and DEF increased the collapse of Δψ in a manner that was dose-dependent and accentuated by viral infection (FIGS. 8E and F). […] Thus, exposure to CPX or DEF counteracted the HIV-mediated reduction of Δψ collapse and rendered infected cells more susceptible than uninfected cells to an early step in drug-induced apoptosis.

[3] = CPX 30 μM from day 7 for one month, isolate #990,010

SMILES | inhibition of deoxyhypusine hydroxylase activity / eIF5A hydroxylation [1] | day after which viral RNA was not detected (HIV-1; CPX 30 μM from day 7) [days] | day after which viral protein was not detected (HIV-1; CPX 30 μM from day 7) [days] | decline in HIV-1 RNA levels (HIV-1; CPX 30 μM from day 7) | level of p24 (HIV-1; [3]) | level of viral RNA (HIV-1; [3]) | rebound of HIV-1 infection after drug withdrawal (HIV-1) | expression from pCMV-FF (construct I) [2] | CMV-driven Renilla luciferase expression [2] | Δψ collapse at low drug concentrations (H9-HIV cells) | collapse of Δψ, infected versus uninfected cells (H9-HIV cells)
Cc1cc(C2CCCCC2)n(O)c(=O)c1 [CPX, 6-cyclohexyl-1-hydroxy-4-methylpyridin-2[1H]-one] | Dose-dependent inhibition of deoxyhypusine hydroxylase activity | > 38 | > 21 | four orders of magnitude | to the limit of detectability | to the limit of detectability | productive infection does not return after drug removal | unaffected | no effect on CMV-driven Renilla luciferase expression | enhanced Δψ collapse even at low drug concentrations | significantly increased collapse of Δψ compared to uninfected cells
Cc1ccn(O)c(=O)c1 [Agent P2, 1-hydroxy-4-methylpyridin-2[1H]-one] | failed to inhibit eIF5A hydroxylation in vivo or in vitro | – | – | – | – | – | – | – | – | – | –
Cc1c(O)c(=O)ccn1C [DEF, 3-hydroxy-1,2-dimethylpyridin-4(1H)-one] | – | – | – | – | – | – | productive infection does not return after drug removal | unaffected | no effect on CMV-driven Renilla luciferase expression | enhanced Δψ collapse even at low drug concentrations | significantly increased collapse of Δψ compared to uninfected cells
